Earlier results in patent US20180305742A1, “USE OF ESTROGENIC COMPOUNDS TO […] BACTERIAL COMPOSITION OF VAGINAL COMMUNITIES” (University of Idaho, priority 2017, published 2018).

System: estrogen receptor

## C[C@]12CC[C@@H]3c4ccc(O)cc4CC[C@H]3[C@@H]1C[C@@H](O)[C@@H]2O [Estriol, estriol]
As potent as estradiol
  potency relative to estradiol: 8%
As potent as estrone
  potency relative to estrone: 14%
